From patent US11471446B2, “Compounds for treatment of hypoproliferative disorders” (LU LICENSE AB, priority 2015, dated 2022)
pEC50: −log10 of the molar value. Entries after “also recorded” stand apart in the source; their conditions may differ. Where a name gives a salt, the structure may show the parent alone.

How the values were obtained:
[1] = system: RPS19-deficient murine erythroid progenitor cells; assay: Phenotypic assay for rescued cell proliferation of murine RPS19-deficient erythroid progenitor cells; type: cell-based, mouse; conditions: for Emax / pEC50: Mus musculus, Erythroid progenitor cell; for Emax: maximal proliferation rescue, read-out: ECMAX (% rescue); for rescue of proliferation (in words): RPS19-deficient murine erythroid progenitor cells; for pEC50: proliferation rescue of RPS19-deficient erythroid progenitor cells
Excerpt: Correction of reduced proliferative capacity of RPS19-deficient erythroid progenitors was used as readout in a phenotypic screen for novel drug candidates.

[2] = known from Saito et al.; cited from earlier work
[3] = system: DBA patient CD34+ cells; assay: Proliferation of erythroid DBA patient CD34+ cells in vitro; type: cell-based, human; conditions: 200 nM; day 14 of culture
Protocol: 5000 peripheral blood CD34+ cells from healthy donors or DBA patients were plated in serum free medium containing human stem cell factor and Epo to support expansion of erythroid progenitors and precursor cells. […] All three CDK8-inhibitors promote proliferation of DBA patient cells.
(§1) To confirm that CDK8/CDK19 inhibitors rescue erythropoiesis also in human DBA patient cells, CD34+ cells were isolated from healthy donors and DBA patients. CD34+ cells were cultured in conditions supporting expansion of erythroid progenitors and precursors. Three CDK8/CDK19 inhibitors and vehicle control were added to the cultures.

[4] = system: DBA patient CD34+ cells; assay: Erythroid maturation of DBA patient cells in vitro (CD71/CD235a flow cytometry); type: cell-based, human; conditions: 200 nM; day 8 of culture; compared to DMSO
Protocol: Cells were cultured in the same conditions as in FIG. 9 and analysed by flow cytometry at day 8 of culture. CD71 is a positive marker for early erythroid progenitors while CD71 and CD235a positive cells are mature erythroid precursors.
as §1

[5] = system: RPS19-deficient mice; assay: Reticulocyte counts in RPS19-deficient mouse model for DBA; type: in vivo; conditions: oral 10 mg/kg every 12 hours, 5 doses; peripheral blood 48 hours after last treatment
Protocol: Treatment was stopped after 5 doses. 48 hours after last treatment peripheral blood was analysed for reticulocyte counts, which reflects the ongoing production of erythrocytes.
Treatment is stopped after 5 doses. 48 hours after last treatment peripheral blood is analysed for reticulocyte counts, which reflects the ongoing production of erythrocytes. Reticulocyte counts is rescued in RPS19-deficient mice treated with the selective CDK8/CDK19 inhibitors tested. In addition to rescue of reticulocyte and haemoglobin levels, other effects of the tested CDK8/CDK19 inhibitors are determined, in particular their ability to rescue bone marrow hypocellularity, to promote hemapopoetic stem and progenitor development, as well as cell cycle arrest and apoptosis.

[6] = system: RPS19-deficient erythroid progenitor cells; assay: 7-AAD FACS, cell survival of RPS19-deficient erythroid progenitors; type: cell-based, mouse
Excerpt: (§2) In addition, the selective CDK8/CDK19 inhibitors DBA-7 and DBA-8 both rescued RPS19-deficient erythroid progenitor cells from apoptosis (FIG. 7) and loss of kit+ progenitor cell maintenance in culture (FIG. 8).

[7] = system: RPS19-deficient erythroid progenitor cells; assay: c-kit FACS, maintenance of c-kit+ progenitor cells in culture of RPS19-deficient erythroid progenitors; type: cell-based, mouse
Excerpt: FIG. 8: The selective CDK8/CDK19 inhibitors DBA-7 and DBA-8 rescue the loss of c-kit+ progenitor cell observed in in vitro culture of RPS19-deficient erythroid progenitors.
as §2

[8] = target: T1, CDK19 (Homo sapiens (Human), UniProt Q9BWU1); assay: KinomeScan (DiscoveRx) on 468 kinases; type: binding; conditions: 0.5 μM
T1 sequence (Q9BWU1 whole entry): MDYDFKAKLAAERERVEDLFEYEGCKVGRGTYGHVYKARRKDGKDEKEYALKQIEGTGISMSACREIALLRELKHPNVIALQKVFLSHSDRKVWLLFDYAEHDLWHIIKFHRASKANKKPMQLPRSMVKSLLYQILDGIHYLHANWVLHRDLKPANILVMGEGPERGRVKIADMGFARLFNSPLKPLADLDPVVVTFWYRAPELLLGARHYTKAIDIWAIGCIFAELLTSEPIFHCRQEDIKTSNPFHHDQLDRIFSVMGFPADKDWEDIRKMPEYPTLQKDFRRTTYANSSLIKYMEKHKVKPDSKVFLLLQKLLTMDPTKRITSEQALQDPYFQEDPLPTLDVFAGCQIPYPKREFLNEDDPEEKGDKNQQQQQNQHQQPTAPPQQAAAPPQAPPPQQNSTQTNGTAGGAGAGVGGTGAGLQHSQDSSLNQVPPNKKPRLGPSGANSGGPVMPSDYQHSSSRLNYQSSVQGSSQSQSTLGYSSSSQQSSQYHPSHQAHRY
Excerpt: (§3) Arrows point at CDK8 and CDK19.
(§4) In particular, a compound may be considered to be a CDK8 and/or CDK19 inhibitor if it can inhibit CDK8 and/or CDK19 at a concentration as defined herein above using the KinomeScan assay.

[9] = target: CDK8 (Homo sapiens (Human), UniProt P49336); assay: KinomeScan (DiscoveRx) on 468 kinases; type: binding; conditions: 0.5 μM
CDK8, sequence (P49336 whole entry): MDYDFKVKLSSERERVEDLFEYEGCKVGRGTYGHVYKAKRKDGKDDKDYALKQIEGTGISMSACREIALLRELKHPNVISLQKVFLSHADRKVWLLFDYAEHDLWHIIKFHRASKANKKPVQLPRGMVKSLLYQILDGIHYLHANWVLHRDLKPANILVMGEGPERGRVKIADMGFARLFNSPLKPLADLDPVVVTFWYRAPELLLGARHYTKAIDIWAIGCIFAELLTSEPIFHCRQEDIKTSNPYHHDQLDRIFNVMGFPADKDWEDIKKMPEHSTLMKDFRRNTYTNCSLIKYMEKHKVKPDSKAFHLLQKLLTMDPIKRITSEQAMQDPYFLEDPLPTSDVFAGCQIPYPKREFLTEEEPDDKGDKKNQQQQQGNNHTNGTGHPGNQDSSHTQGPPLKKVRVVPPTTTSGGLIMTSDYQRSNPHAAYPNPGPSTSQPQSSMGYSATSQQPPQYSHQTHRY
Excerpt: as §3, §4

[10] = target: T1, CDK19; assay: 18 selected kinases panel, DiscoveRx LeadHunter Discovery Services; type: binding; conditions: tested on 18 selected kinases
Protocol: DBA-4 was tested on 18 selected kinases by DiscoveRx LeadHunter™ Discovery Services.

Row | SMILES | Emax [1] [%] | rescue of proliferation (in words) [1] | pEC50 [1] | other results
1 | NC(=O)c1sc2nccc(N3CCCN(c4ccccc4)CC3)c2c1N [DBA-6] | 30 | partial dose-dependent rescue of proliferation; also recorded: potent |  | bone anabolic effect [2]: effect as bone anabolic agents
2 | Cc1c(Br)c(Br)c2c3c1nc(N1CCNCC1)n3CCC2 [DBA-10, 7,8-dibromo-9-methyl-2-(piperazin-1-yl)-5,6-dihydro-4H-imidazo[4,5,1-ij]quinoline hydrochloride, reference compound] | 60 |  | 7.70 | proliferation of DBA patient cells (cell counts) [3]: rescue proliferation; erythroid maturation of DBA patient cells (CD71, CD235a) [4]: increase erythroid maturation
3 | COc1ccc(-c2cc(C3CC3)nc3sc(C(N)=O)c(N)c23)cc1 [DBA-2] | 45 | potent | 4.82 | 
4 | Cn1cc(-c2ccc(-c3cncc(Cl)c3N3CCC4(CCNC4=O)CC3)cc2)cn1 [DBA-11, 8-[3-chloro-5-[4-(1-methyl-1H-pyrazol-4-yl)phenyl]-4-pyridinyl]-2,8-diazaspiro[4.5]decan-1-one, reference compound] | 50 |  | 7.70 | 
5 | CN1CCN(C(=O)c2ccc3cc(CCNc4ncnc5ccc(C#N)cc45)ccc3c2)CC1 [DBA-9] | 60 |  |  | reticulocyte counts [5]: rescued; proliferation of DBA patient cells (cell counts) [3]: rescue proliferation; erythroid maturation of DBA patient cells (CD71, CD235a) [4]: increase erythroid maturation
6 | CN(C)c1ccnc2sc(C(N)=O)c(N)c12 [DBA-1] | 25 | partial dose-dependent rescue of proliferation; also recorded: potent | 5.92 | bone anabolic effect [2]: effect as bone anabolic agents
7 | N#Cc1ccc2ncnc(NCCc3ccccc3)c2c1 [DBA-8, reference compound] | 80 | partial dose-dependent rescue of proliferation | 6.30 | rescue from apoptosis (7-AAD) [6]: rescued; rescue of loss of kit+ progenitor cell maintenance in culture [7]: rescued
8 | CN(C)C(=O)Cc1ccc(N2CCCN(c3ccnc4sc(C(N)=O)c(N)c34)CC2)cc1 [DBA-7] | 82 | potent; also recorded: partial dose-dependent rescue of proliferation | 7.60 | inhibition of CDK19 [8]: very selectively inhibited; inhibition of CDK8 [9]: very selectively inhibited; rescue from apoptosis (7-AAD) [6]: rescued; rescue of loss of kit+ progenitor cell maintenance in culture [7]: rescued; proliferation of DBA patient cells (cell counts) [3]: rescue proliferation; erythroid maturation of DBA patient cells (CD71, CD235a) [4]: increase erythroid maturation; bone anabolic effect [2]: effect as bone anabolic agents
9 | Cc1c(C(N)=O)sc2nc(C(F)(F)F)cc(N)c12 [DBA-5] | 21 | potent | 5.77 | 
10 | COCc1cc(C)nc2sc(C(N)=O)c(N)c12 [DBA-4] | 28 | potent | 5.55 | inhibition of CDK19 [10]: inhibited
11 | CCc1nc2sc(C(N)=O)c(N)c2c2c1CCCC2 [DBA-3] | 38 | potent | 4.96 | 
